Data as given in PubChem BioAssay AID1963443 (Molecular Pharmacology Branch, DTP, NCI, 2024).

Test system: MDA-MB-231 complex spheroids, growth inhibition
Experiment: Anticancer human tumor MDA-MB-231 cell line growth inhibition [Asc];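 note: spheroids exposed to compounds for 7 days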
Details: for IC50: curve of first compound; for viability, T/C: stronger effect = lower value
Summary of the method: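 Tumor cells were grown as multicellular spheroids with stromal HUVEC and mesenchymal stem cells and treated singly or in combination. Concentrations fell in half-log steps from the clinical Cmax, or from 10 microM where none was known.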

[1] = second compound 0.1 µM, first compound 0.0316 µM
[2] = second compound 0.1 µM, first compound 0.1 µM
[3] = second compound 0.1 µM, first compound 0.316 µM
[4] = second compound 0.1 µM, first compound 1 µM
[5] = second compound 0.1 µM, first compound 3.16 µM
[6] = second compound 0.1 µM, first compound 10 µM
[7] = second compound 0.316 µM, first compound 0.0316 µM
[8] = second compound 0.316 µM, first compound 0.1 µM
[9] = second compound 0.316 µM, first compound 0.316 µM
[10] = second compound 0.316 µM, first compound 1 µM
[11] = second compound 0.316 µM, first compound 3.16 µM
[12] = second compound 0.316 µM, first compound 10 µM
[13] = second compound 1 µM, first compound 0.0316 µM
[14] = second compound 1 µM, first compound 0.1 µM
[15] = second compound 1 µM, first compound 0.316 µM
[16] = second compound 1 µM, first compound 1 µM
[17] = second compound 1 µM, first compound 3.16 µM
[18] = second compound 1 µM, first compound 10 µM
[19] = second compound 3.16 µM, first compound 0.0316 µM
[20] = second compound 3.16 µM, first compound 0.1 µM
[21] = second compound 3.16 µM, first compound 0.316 µM
[22] = second compound 3.16 µM, first compound 1 µM
[23] = second compound 3.16 µM, first compound 3.16 µM
[24] = second compound 3.16 µM, first compound 10 µM
[25] = second compound 10 µM, first compound 0.0316 µM
[26] = second compound 10 µM, first compound 0.1 µM
[27] = second compound 10 µM, first compound 0.316 µM
[28] = second compound 10 µM, first compound 1 µM
[29] = second compound 10 µM, first compound 3.16 µM
[30] = second compound 10 µM, first compound 10 µM

C=CC(=O)N1CCN(c2nc(=O)n(-c3c(C)ccnc3C(C)C)c3nc(-c4c(O)cccc4F)c(F)cc23)C(C)C1 (stereo not given) + Cc1c(S(C)(=O)=O)c(-c2cc(F)cc(N3CCN(c4ccc(NS(=O)(=O)c5ccc(NC(CCN6CCC(C(=O)OCCCP(=O)(O)O)CC6)CSc6ccccc6)c(S(=O)(=O)C(F)(F)F)c5)cc4)CC3)c2)c(-c2ccc(Cl)cc2)n1C(C)C
IC50 (second compound 0.1 µM): > 10 µM | IC50 (second compound 0.316 µM): > 10 µM | IC50 (second compound 1 µM): > 10 µM | IC50 (second compound 3.16 µM): > 10 µM | IC50 (second compound 10 µM): > 10 µM | viability, T/C [1]: 99.8% | viability, T/C [2]: 94.4% | viability, T/C [3]: 96.7% | viability, T/C [4]: 102% | viability, T/C [5]: 105% | viability, T/C [6]: 98.4% | viability, T/C [7]: 106% | viability, T/C [8]: 112% | viability, T/C [9]: 111% | viability, T/C [10]: 117% | viability, T/C [11]: 116% | viability, T/C [12]: 116% | viability, T/C [13]: 108% | viability, T/C [14]: 106% | viability, T/C [15]: 100% | viability, T/C [16]: 111% | viability, T/C [17]: 109% | viability, T/C [18]: 96.6% | viability, T/C [19]: 104% | viability, T/C [20]: 96.8% | viability, T/C [21]: 89.1% | viability, T/C [22]: 97.5% | viability, T/C [23]: 105% | viability, T/C [24]: 91.2% | viability, T/C [25]: 96.6% | viability, T/C [26]: 93.7% | viability, T/C [27]: 93.3% | viability, T/C [28]: 96.6% | viability, T/C [29]: 97.1% | viability, T/C [30]: 83.4%

O=C(c1cc(Cc2n[nH]c(=O)c3ccccc23)ccc1F)N1CCN(C(=O)C2CC2)CC1 + Cc1c(S(C)(=O)=O)c(-c2cc(F)cc(N3CCN(c4ccc(NS(=O)(=O)c5ccc(NC(CCN6CCC(C(=O)OCCCP(=O)(O)O)CC6)CSc6ccccc6)c(S(=O)(=O)C(F)(F)F)c5)cc4)CC3)c2)c(-c2ccc(Cl)cc2)n1C(C)C
IC50 (second compound 0.1 µM): > 10 µM | IC50 (second compound 0.316 µM): > 10 µM | IC50 (second compound 1 µM): > 10 µM | IC50 (second compound 3.16 µM): 7.46 µM | IC50 (second compound 10 µM): 6.79 µM | viability, T/C [1]: 96.8% | viability, T/C [2]: 98.9% | viability, T/C [3]: 94.9% | viability, T/C [4]: 85.7% | viability, T/C [5]: 78.3% | viability, T/C [6]: 68.9% | viability, T/C [7]: 91.7% | viability, T/C [8]: 96.2% | viability, T/C [9]: 100% | viability, T/C [10]: 87.2% | viability, T/C [11]: 87% | viability, T/C [12]: 65.6% | viability, T/C [13]: 97.7% | viability, T/C [14]: 95.3% | viability, T/C [15]: 88.8% | viability, T/C [16]: 85% | viability, T/C [17]: 77.5% | viability, T/C [18]: 54.5% | viability, T/C [19]: 86.8% | viability, T/C [20]: 93.8% | viability, T/C [21]: 89.3% | viability, T/C [22]: 83.9% | viability, T/C [23]: 72.2% | viability, T/C [24]: 42.3% | viability, T/C [25]: 102% | viability, T/C [26]: 101% | viability, T/C [27]: 96.8% | viability, T/C [28]: 91% | viability, T/C [29]: 75.7% | viability, T/C [30]: 36.9%
